Measurements reported in publication PMC9714824, “Hexapeptides from mammalian inhibitory hormone hunt activate and inactivate nematode reproduction” (PLOS ONE, 2022).

Tests used:
[1] = tested on: human prostate cancer cell lines (LNCaP, PC3 and DU145); experiment: 3H-thymidine incorporation, prostate cancer cells; assay type: cell-based; details: 0.06 or 6 μM, 24h then 48h pulse; in words (Fig 4)
Experimental: For assays involving 14mer peptides only human prostate cancer cell lines (LNCaP, PC3 and DU145) were obtained from ATCC (American Tissue Type Culture Collection, Rockville, MD, USA). Cells were cultured in DMEM (Dulbecco’s […], Life Technologies, Grand Island, NY, USA) supplemented with 10% fetal calf serum (FCS, heat-inactivated), 100 IU/ml penicillin and 10 μg/ml streptomycin (all CSL, Parkville, Victoria, Australia) in 75 cm^2 culture flasks (Becton Dickinson, Franklin Lakes, NJ, USA) and were maintained at 37°C in a humidified incubator with […]. Incorporation of ^3H-thymidine was used to assess DNA synthesis. Cells were seeded overnight at 0.5 x 10^5 cells per well in 24-well tissue culture plates in DMEM culture medium (supplemented as above with 10% FCS, penicillin and streptomycin). Cell growth was synchronised by culturing cells in DMEM containing 0.1% bovine serum albumin (supplemented with penicillin and streptomycin, but without FCS) for 24h. […]
Fig 4 EPL001 and EPL030 effects on human prostate cancer cell growth in vitro. Cell proliferation was determined by ^3H-thymidine incorporation. […]

[2] = Toxicity study in immunodeficient nude mice; assay type: in vivo, female Balb/c immunodeficient nude mice; details: for Toxicity: in words; for Maximum weight loss compared to Day 0: groups of 2 mice
Experimental: For toxicity studies female Balb/c immunodeficient nude mice were used (B & K Universal, Hull, UK), aged 6–8 weeks old. They were housed in cages in isolation cabinets in an air-conditioned room with regular alternating cycles of light and darkness and received Teklad 2018 (Envigo) diet and water ad libitum. EPL001 and EPL030 in PBS at pH7.4 were administered to groups of 2 mice intraperitoneally (i.p.) daily on Days 0–4 at 500 mg/kg/dose and then 1000 mg/kg/dose. Following treatment, body weight was measured on a regular basis, and behaviour and general appearance monitored visually to assess for deleterious effects (e.g. dehydration, impaired mobility, hunched posture, low body temperature, ulceration and significant body weight loss), with any effects during the study recorded. […] If no deleterious effects were seen after at least 16 days of study, then the animals were sacrificed, with the dose considered non-toxic.
For toxicity studies female Balb/c immunodeficient nude mice were used (B & K Universal, Hull, UK), aged 6-8 weeks old. They were housed in cages in isolation cabinets in an air-conditioned room with regular alternating cycles of light and darkness and received Teklad 2018 (Envigo) diet and water ad libitum. EPL001 and EPL030 in PBS at pH7.4 were administered to groups of 2 mice intraperitoneally (i.p.) daily on days 0-4 at 500mg/kg/dose and then 1000mg/kg/dose. Following treatment, body weight was measured on a regular basis, and behaviour and general appearance monitored visually to assess for deleterious effects (e.g. dehydration, impaired mobility, hunched posture, low body temperature, ulceration and significant body weight loss), with any effects during the study recorded.

[3] = tested on: MCF-7 human breast adenocarcinoma xenografts; experiment: MCF-7 xenograft study with untreated control (second study); assay type: in vivo, nude mice; details: for Tumour growth delay compared to controls: in words; for Max % weight loss / Median RTV2 / Growth delay: second study; for Max % weight loss: 100mg/kg/day i.p.; for Median RTV2: 100mg/kg/day i.p. days 0-17, n=8; for Growth delay: vs untreated control
Experimental: The MCF-7 human breast adenocarcinoma model was selected for xenograft studies. […] An oestrogen pellet was implanted subcutaneously in the dorsal area 24 hours prior to 2-3mm^3 fragments of MCF-7 tumour taken from donor tumours transplanted subcutaneously in the abdominal flanks of the efficacy study mice. Once tumour volumes reached approximately 32 mm^3 (as measured by calipers, designated treatment Day 0) mice were randomised into one of three groups (n = 8) as follows: EPL001 or EPL030 at 100 mg/kg/day administered i.p. on […], plus a peptide-untreated (PBS only) control group. Tumour volume, using calipers, and animal body weight were recorded throughout the experiment and normalised to the respective tumour volume on the initial day of treatment (Day 0). Mann-Whitney U tests were conducted to determine the statistical significance of any differences in growth rate (based on tumour volume doubling time) between control and treated groups.
(§1) The MCF-7 human breast adenocarcinoma model was selected for two xenograft studies. An oestrogen pellet was implanted subcutaneously in the dorsal area 24 hours prior to 2-3mm^3 fragments of MCF-7 tumour taken from donor tumours transplanted subcutaneously in the abdominal flanks of the efficacy study mice. Once tumour volumes reached approximately 32 mm^3 (as measured by calipers, designated treatment day 0) mice were randomised into treatment groups (n=8).
In the second study three groups were used as follows: EPL001 or EPL030 at 100mg/kg/day administered i.p. on days 0-17, plus an untreated control group.
(§2) Tumour volume, using calipers, and animal body weight were recorded throughout the experiment and normalised to the respective volume on the initial day of treatment (day 0). Mann-Whitney U tests were conducted to determine the statistical significance of any differences in growth rate (based on tumour volume doubling time) between control and treated groups.

[4] = tested on: MCF-7 human breast adenocarcinoma xenografts; experiment: MCF-7 xenograft precursor study (first study); assay type: in vivo, nude mice; details: for Max % weight loss: 100mg/kg/day i.p.; for Median RTV2: 100mg/kg/day i.p. on 15 days between days 0 and 20, n=8
Experimental: as §1
In the first study four groups were used as follows: EPL001 or EPL030 at 100mg/kg/day administered i.p. on days 0, 1, 4, 5, 6, 7, 8, 11, 12, 13, 14, 15, 18, 19 and 20, plus a mouse anti-EPL001 monoclonal antibody or a control antibody directed at mouse haemocytes at 4mg/kg/day administered i.p. on days 0, 1, 2, 3, 4, 7, 8, 9, 10, 11, 14, 15, 16, 17 and 18 .
as §2

[5] = 500mg/kg/day ip Days 0 to 4, on Day 2
[6] = 1000mg/kg/day ip Days 0 to 4, EPL030 on Day 3, EPL001 on Day 1

Sequence | Cell proliferation by 3H-thymidine incorporation [1] | Toxicity ([2]; 500mg/kg/day ip Days 0 to 4) | Maximum weight loss compared to Day 0 [2, 5] [%] | Maximum weight loss compared to Day 0 [2, 6] [%] | Toxicity ([2]; 1000mg/kg/day ip Days 0 to 4) | Tumour growth delay compared to controls ([3]; 100 mg/kg/day i.p., n = 8) | Tumour growth at termination compared with PBS-only controls ([3]; 100 mg/kg/day i.p., n = 8, ns) [%] | Max % weight loss [3] [%] | Median RTV2 [3] [days] | Growth delay [3] [days] | Max % weight loss [4] [%] | Median RTV2 [4] [days] | Growth delay ([4]; EPL001 versus EPL030) [days]
KLKMNGKNIEPVFT [EPL030, …, scrambled EPL001 control] | antiproliferative | No discernible toxicity | 4.0 | 7.0 | no discernible signs of toxicity | no statistically significant tumour growth delay | −20.2 | 2.4 | 3.6 | 0.1 | 1.2 | 7.3 | –
MKPLTGKVKEFNNI [EPL001, 14mer master test peptide …; ovine provenance] | antiproliferative | No discernible toxicity | 5.0 | 3.5 | no discernible signs of toxicity | no statistically significant tumour growth delay | – | 0 | 4.6 | 1.1 | 3.6 | 7.7 | 0.4
